These results are taken from patent US20250295609A1, “COMPOUND HAVING ANTI-ANDROGEN RECEPTOR ACTIVITY, AND USE THEREOF” (NANJING MINOVA PHARMACEUTICAL CO., LTD., priority 2022, published 2025).

The subject of test [1] is human prostate cancer cells LNCaP. The test can be described thus: Cell viability inhibition assay (CTG) on LNCaP cells in presence of DHT. The format is cell-based. The note with it: read-out: Inhibitory activity against human prostate cancer cell LNCaP IC50. From the text: Human prostate cancer cells LNCaP and human prostate cancer cells 22Rvl are present in patients with prostate cancer. An androgen, DHT, is able to promote the growth of human prostate cancer cells LNCaP. Using the cell model described above was intended to study the inhibitory effects of the compounds of the present disclosure on the growth of human prostate cancer cells (human prostate cancer cells LNCaP and human prostate cancer cells 22Rvl) in the presence or absence of DHT.
The medium in the culture dish was discarded, and 5 mL of trypsin was added for digestion for about 3 mins. The digestion was stopped by adding 10 mL of a fresh medium. The cells were fully pipetted and transferred to a 15 mL centrifuge tube, and the cells were collected by centrifugation at 1000 rpm for 5 mins. The cells collected by centrifugation were resuspended in 11 mL of a fresh medium. 1 mL of the cells was taken and counted, and the cell viability was detected. The cell density was adjusted to 1×10^4 cells/mL by adding an appropriate amount of the medium. The cells were seeded in a 96-well plate at 200 µL/well, and the plate was incubated overnight in a cell incubator.
After the cells were attached to the well, for the human prostate cancer cells LNCaP group, test compounds (0.1 μM, 0.3 μM, 1 μM, 3 μM, 10 μM, and 30 μM) and DHT (1 nM, inducing the expression of AR) were added to the 96-well plate, and the plate was incubated for another 5 days; for the human prostate cancer cells 22Rvl group, test compounds (0.1 μM, 0.3 μM, 1 μM, 3 μM, 10 μM, and 30 μM) were added to the 96-well plate, and the plate was incubated for another 5 days. […] The 96-well plate was equilibrated at room temperature for 30 mins. The cell viability was detected by using a CTG method. Before detection, CellTiter-Glo® Buffer and a substrate thereof (collectively called CTG reagent) were thawed and equilibrated to room temperature. Then, […] of Buffer was gently mixed with the substrate to form a homogeneous solution. The homogeneous solution was added to the 96-well plate at 100 µL/well, and the 96-well plate was incubated on a shaker for 15 mins. The fluorescence value in each well was then detected. The detection method for the fluorescence value in each well was as follows: after adding the CTG reagent, luminescence detection (integration time: 500 ms) was performed by using a correspondingly equipped multi-mode microplate reader (M200Pro, TECAN, Switzerland) according to the supplier's manual to quantify the effect of the inhibitor on the cell viability. For data analysis, an assay background value was subtracted from all data points, which was determined in wells containing the medium but no cells. Data were processed using the XLfit software (XLfit 5.2., IDBS, UK), and IC50 values of the test compounds were calculated.

Test [2] deals with T1, AR protein expression in human prostate cancer cells LNCaP (Homo sapiens, UniProt P10275, T878A).
T1 sequence (P10275 1-920 T878A): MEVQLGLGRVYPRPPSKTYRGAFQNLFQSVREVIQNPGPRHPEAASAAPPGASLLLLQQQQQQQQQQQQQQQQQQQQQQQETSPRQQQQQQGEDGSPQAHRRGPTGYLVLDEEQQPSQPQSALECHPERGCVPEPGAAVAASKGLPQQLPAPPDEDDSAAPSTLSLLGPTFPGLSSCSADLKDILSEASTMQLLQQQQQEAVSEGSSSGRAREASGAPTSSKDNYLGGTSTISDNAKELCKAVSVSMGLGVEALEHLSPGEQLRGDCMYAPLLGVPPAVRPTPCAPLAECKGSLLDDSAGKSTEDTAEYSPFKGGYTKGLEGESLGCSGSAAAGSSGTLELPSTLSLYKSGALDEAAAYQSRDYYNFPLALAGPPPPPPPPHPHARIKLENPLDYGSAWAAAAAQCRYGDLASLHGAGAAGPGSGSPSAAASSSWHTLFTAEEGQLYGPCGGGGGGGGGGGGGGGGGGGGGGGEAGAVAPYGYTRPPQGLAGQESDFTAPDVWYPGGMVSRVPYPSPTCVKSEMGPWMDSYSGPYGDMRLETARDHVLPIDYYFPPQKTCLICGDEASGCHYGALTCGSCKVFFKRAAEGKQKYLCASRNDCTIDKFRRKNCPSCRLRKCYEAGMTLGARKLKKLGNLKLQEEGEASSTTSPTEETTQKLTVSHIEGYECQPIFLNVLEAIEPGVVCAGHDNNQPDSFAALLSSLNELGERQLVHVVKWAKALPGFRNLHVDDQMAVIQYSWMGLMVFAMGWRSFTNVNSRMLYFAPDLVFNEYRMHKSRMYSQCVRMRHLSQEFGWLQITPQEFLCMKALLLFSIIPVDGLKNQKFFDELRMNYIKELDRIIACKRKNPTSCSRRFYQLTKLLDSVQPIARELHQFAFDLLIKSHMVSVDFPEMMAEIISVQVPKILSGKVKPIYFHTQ
The test can be described thus: Reduction of AR protein expression in LNCaP cells (Western blot, with DHT). Format: cell-based. The conditions noted are these: 1 nM DHT; for anti-AR activity (in words): Western blot; for AR reduction percentage: 2.5 μmol/L compound; for AR reduction percentage / Relative potency (anti-AR activity): 48 h; for Relative potency (anti-AR activity): concentration basis not given. The protocol:
The term “anti-AR activity” refers to the ability of the compound of the present disclosure to reduce AR expression in human prostate cancer cells LNCaP, and the ability of the compound of the present disclosure to reduce AR expression is expressed in AR reduction percentage (%) herein. […] The AR reduction percentage (%) is calculated as follows: AR reduction percentage (%)=(AR in DHT group/GAPDH value−AR in test compound group/GAPDH value)/AR in DHT group/GAPDH value×100%.
AR is a key factor for regulating the response of prostate cancer cells to androgens. AR is also a key factor for the response of hair follicles or tissues around the hair follicles to androgens, and the reduction of the AR content not only can down-regulate the growth of the prostate cancer cells, but also can inhibit androgenetic alopecia. This test example is to test the effects of the compounds of the present disclosure on the reduction of AR protein expression in human prostate cancer cells LNCaP in the presence of DHT. The compounds of the present disclosure were analyzed for anti-AR activity in human prostate cancer cells LNCaP by measuring the reduction of AR protein using the Western blot method.
Human prostate cancer cells LNCaP were seeded in a 6-well plate at 4×10^5 cells/mL and at a volume of 2 mL per well. The plate was incubated overnight in a cell incubator. DMSO and dihydrotestosterone (DHT, 1 nM) were used as control groups. Assays were performed in the presence of dihydrotestosterone (DHT, 1 nM). After incubating with the test compounds for a specified time, the cells were collected and dissolved according to the Western blot technique known in the biochemical art. A DMSO group, a DHT group (1 nM) and test compound groups (containing 1 nM DHT) were set during the assay. DMSO and DHT (1 nM DHT) were added to 6-well plates corresponding to the DMSO group and the DHT group, respectively. […] The protein concentration was quantified using the BCA kit, and then the samples were stored for later use.
The content of the AR protein in each group was determined by using Western Blot, and the loading amount of the sample in each group was […]. Western blot analysis has been disclosed in the prior art. Specifically, the cells were collected in 2× sodium dodecyl sulfate/polyacrylamide gel electrophoresis loading buffer or in radioimmunoprecipitation assay (RIPA) buffer strengthened with 10 μg/mL benzamidine, 10 μg/mL trypsin inhibitor, and 1 mM phenylmethylsulfonyl fluoride. A sample of total protein (about 40 μg) from each cell lysate was separated by electrophoresis on an SDS/PAGE gel. After separation by electrophoresis, the proteins were transferred from the gel to a nitrocellulose membrane following the standard procedures. The membrane was then incubated with 10% non-fat milk in phosphate-buffered saline supplemented with 0.1% Tween 20 (PBST) for 1 h, followed by incubation with a primary human AR-specific antibody (purchased from BD-Harlingen) at 4° C. overnight. After incubation, the membrane was washed 3 times with PBST buffer, each for 10 mins. An alkaline phosphatase-conjugated secondary antibody was then added, and the membrane was incubated at room temperature for 1 h. After the secondary incubation, the membrane was washed again with PBST, and the AR protein signal in the membrane was visualized by adding an alkaline phosphatase medium, bromochloroindolyl phosphate, and nitrotetrazole to the membrane. To ensure that an equal amount of protein from each sample was analyzed, a portion of the membrane was kept with a specific antibody for the regulatory protein GAPDH (Santa Cruz Biotechnology), and the GAPDH signal was visualized with the secondary antibody described above. The protein signal intensity (as indicated by color bands on the membrane) was measured using a densitometer and analyzed by the NIH Image J software (NIH1.33).

[3] abbreviates: Homo sapiens, 120 h, 1 nM DHT, 5 days, CTG.

Where a name gives a salt, the structure may show the parent alone. Read-outs that look alike come from different tables or passages of the source.

The term IC50 denotes the point on the concentration scale where inhibition reaches its midpoint. With `CCN(CC)C1CCC(C(=O)/C=C/c2ccc(OC)c(OC)c2)(C(=O)/C=C/c2ccc(OC)c(OC)c2)CC1` [Compound 16 hydrochloride], the IC50 in test [1] (Homo sapiens, 120 h) is 0.37 µM.

Consider `COc1ccc(/C=C/C(=O)C2(C(=O)/C=C/c3ccc(OC)c(OC)c3)CCC(NC3CC(F)(F)C3)CC2)cc1OC` [Compound 23 hydrochloride], for which the IC50 in test [1] (setting [3]) is 0.62 µM.

As to `COc1ccc(/C=C/C(=O)C2(C(=O)/C=C/c3ccc(OC)c(OC)c3)CC3(CC3)C2)cc1OC` [Compound 5], the IC50 in test [1] (Homo sapiens, 120 h) amounted to 5.48 µM.

For `COc1ccc(/C=C/C(=O)C2(C(=O)/C=C/c3ccc(OC)c(OC)c3)CCC(N3CCOCC3)CC2)cc1OC` [Compound 12], the IC50 in test [1] (1 nM DHT, 5 days, CTG) worked out at 1.29 µM.

In the case of `[2H]C([2H])([2H])Oc1ccc(/C=C/C(=O)C2(C(=O)/C=C/c3ccc(OC([2H])([2H])[2H])c(OC([2H])([2H])[2H])c3)C([2H])([2H])C2([2H])[2H])cc1OC([2H])([2H])[2H]` [Compound 6], in test [1] (Homo sapiens, 120 h), the half-maximal inhibitory concentration (IC50) is 2.56 µM.

Turning to `[2H]C([2H])([2H])Oc1ccc(/C=C/C(=O)C2(C(=O)/C=C/c3ccc(OC([2H])([2H])[2H])c(OC([2H])([2H])[2H])c3)CC2)cc1OC([2H])([2H])[2H]` [Compound 1], the IC50 in test [1] (Homo sapiens, 120 h) was 1.71 µM.

As for `COc1ccc(/C=C/C(=O)C2(C(=O)/C=C/c3ccc(OC)c(OC)c3)CCC(O)CC2)cc1OC` [Compound 13], the 50% inhibitory concentration (IC50) in test [1] (setting [3]) was determined as 0.95 µM.

Regarding `COc1ccc(/C=C/C(=O)C2(C(=O)/C=C/c3ccc(OC)c(OC)c3)COC(=O)OC2)cc1OC` [Compound 9], the half-inhibitory concentration (IC50) in test [1] (Homo sapiens, 120 h) was 3.31 µM.

Turning to `COc1ccc(/C=C/C(=O)C2(C(=O)/C=C/c3ccc(OC)c(OC)c3)CCC(N3CCC(F)(F)CC3)CC2)cc1OC` [Compound 18 hydrochloride], the IC50 in test [1] (setting [3]) worked out at 0.61 µM.

For `COc1ccc(/C=C/C(=O)C2(C(=O)/C=C/c3ccc(OC)c(OC)c3)CCC3(CC2)OCCO3)cc1OC` [Compound 11], the IC50 in test [1] (setting [3]) was 0.98 µM.

In the case of `COc1ccc(/C=C/C(=O)C2(C(=O)/C=C/c3ccc(OC)c(OC)c3)CCC(N3CCCCC3)CC2)cc1OC` [Compound 19 hydrochloride], the IC50 in test [1] (setting [3]) came out at 0.35 µM. Further, in test [2], the “anti-AR activity (in words)” value is listed as “significant anti-AR activities”, the AR reduction percentage came out at 81.4% and the “Relative potency (anti-AR activity)” value was “++++++ (75 < * ≤ 100)”.

For the compound `[2H]C([2H])([2H])Oc1ccc(/C=C/C(=O)C2(C(=O)/C=C/c3ccc(OC([2H])([2H])[2H])c(OC([2H])([2H])[2H])c3)CCC2)cc1OC([2H])([2H])[2H]` [Compound 2], the IC50 in test [1] (Homo sapiens, 120 h) worked out at 1.82 µM.

Consider `COc1ccc(/C=C/C(=O)C2(C(=O)/C=C/c3ccc(OC)c(OC)c3)CCN(C(=O)OC(C)(C)C)CC2)cc1OC` [Compound 25], for which, in test [1] (Homo sapiens, 120 h), the half-maximal inhibitory concentration (IC50) stood at 1.37 µM.

In the case of `COc1ccc(/C=C/C(=O)C2(C(=O)/C=C/c3ccc(OC)c(OC)c3)CCC3(CC3)CC2)cc1OC` [Compound 26], the IC50 in test [1] (Homo sapiens, 120 h) came to 0.62 µM.

As to `COc1ccc(/C=C/C(=O)C2(C(=O)/C=C/c3ccc(OC)c(OC)c3)CCC(N3CCOCC3)CC2)cc1OC` [Compound 12 hydrochloride], in test [1] (1 nM DHT, 5 days, CTG, listed as 12 hydrochloride), the IC50 turned out to be 0.45 µM. In test [2], the “anti-AR activity (in words)” value was “significant anti-AR activities”, the AR reduction percentage is listed as 86.2% and the “Relative potency (anti-AR activity)” value was “++++++ (75 < * ≤ 100)”.

Turning to `COc1ccc(/C=C/C(=O)C2(C(=O)/C=C/c3ccc(OC)c(OC)c3)CC=C(F)CC2)cc1OC` [Compound 22], the concentration for half-maximal inhibition (IC50) in test [1] (setting [3]) was 3.14 µM.

Turning to `[2H]C([2H])([2H])Oc1ccc(/C=C/C(=O)C2(C(=O)/C=C/c3ccc(OC([2H])([2H])[2H])c(OC([2H])([2H])[2H])c3)CCCC2)cc1OC([2H])([2H])[2H]` [Compound 3], the IC50 in test [1] (Homo sapiens, 120 h) stood at 1.75 µM.

Turning to `COc1ccc(/C=C/C(=O)C2(C(=O)/C=C/c3ccc(OC)c(OC)c3)CCN(S(C)(=O)=O)CC2)cc1OC` [Compound 24], the concentration for half-maximal inhibition (IC50) in test [1] (Homo sapiens, 120 h) was 0.61 µM.
